Laboratory results: patent US20250019367A1, “Methods for Separation of Enantiomers” (Mirati Therapeutics, Inc., priority 2021, published 2025)

Assay: Solid form stability versus water activity
Assay type: physicochemical
Details: IPA-water mixtures, water activity αw
From the text: In certain such embodiments, the reacting step (c) occurs in an iso-propyl alcohol (IPA, i-PrOH) solution, or isopropyl alcohol and water solution. […] mixtures of IPA-water (e.g. 90/10 v/v) are preferred to maximize recovery and control API form. […] In certain embodiments, the step (c) solution is optionally seeded with M-enantiomer free base Compound 2.

water activity at which the form is the most stable: ≥ 0.13
SMILES: Cn1ncc(-c2ccc3c(=O)[nH]nc(CN)c3c2)c1-c1c(F)c(Cl)cc(OC2CC2)c1C#N [Free Base Type A, (2M)-2-(4-(4-(aminomethyl)-1-oxo-1,2-dihydrophthalazin-6-yl)-1-methyl-1H-pyrazol-5-yl)-4-chloro-6-cyclopropoxy-3-fluorobenzonitrile]
